PMC11820736, “Design, Synthesis, and Anti-Tyrosinase, Anti-Melanogenic, and Antioxidant Activities of Novel (Z)-3-Benzyl-5-Benzylidene-2-Thioxothiazolidin-4-One Analogs” (Molecules, 2025)
“Also recorded” adds a separate entry of the source.

Assays:
B16F10 cells [1] = experiment: Cytotoxicity assay on B16F10 murine melanoma cells (EZ-Cytox); assay type: cell-based; conditions: 1, 2, 5 and 10 μM, 72 h
Procedure: Cell viability for analogs 1–3 was examined on B16F10 cells at 1, 2, 5, and 10 μM concentrations for 72 h.
The influence of (Z)-BBTT analogs 1–3 on B16F10 cell viability was studied using an EZ-Cytox solution (EZ-1000®, DoGenBio, Seoul, Republic of Korea). B16F10 cells were seeded at a density of 1 × 10^3 in each well of a 96-well plate, and the plate was cultivated under normal cell culture conditions for 24 h. Analogs were added to each well at concentrations of 0, 1, 2, 5, and 10 μM, and then cells were cultivated for 72 h under normal cell culture conditions. An aliquot (10 μL) of the EZ-Cytox solution was added to each well and cultivated for 2 h. Well absorbance was recorded at 450 nm using a VE microplate reader to calculate cell viability.

[2] = ABTS cation radical scavenging activity; conditions: 100 μM, 2 min in the dark
Procedure: To measure the scavenging effects of analogs 1–12 on ABTS^+ radicals, ABTS was initially treated with potassium persulfate to yield ABTS^•+. The formed ABTS^+ radical solution was mixed with test samples (analogs 1–12 and Trolox [positive reference standard]; final concentration: 100 μM), and absorbance was measured at 732 nm after storing for 2 min in the dark to determine %ABTS^•+-scavenging ability.
ABTS^•+ was prepared by mixing equal amounts of ABTS (14 mM in H2O) and K2S2O8 (4.9 mM in H2O) and storing in the dark at 20 °C for 16 h. Prior to use, the absorbance of the prepared ABTS^•+ solution was adjusted to 0.7 ± 0.02 at 732 nm by dilution with methanol. A cosolvent (EtOH:DMSO = 10:1 [v/v]) was used to prepare solutions of the test samples (analogs 1–12 and Trolox [positive reference standard]). All test samples were used at a final concentration of 100 μM. The test sample solution (10 μL) was mixed with the adjusted ABTS^•+ solution (90 μL) in each well of a 96-well plate, and the mixture was kept in the dark at 20 °C for 2 min. The absorbance was recorded at 732 nm at 1 min intervals for 10 min using a VE microplate reader. The percentage of radical-scavenging activity was calculated using the formula % radical-scavenging activity = [(Abscontrol − Abssample)/Abscontrol] × 100, where Abssample and Abscontrol are absorbances of the sample and control, respectively.

[3] = DPPH radical-scavenging activity; conditions: 500 μM, 30 min in the dark
Procedure: For measuring the scavenging effect of analogs 1–12 on DPPH radicals, test samples (analogs 1–12 and ascorbic acid [positive reference standard]; final concentration: 500 μM) were mixed with a DPPH solution, and absorbance was measured at 517 nm after storing for 30 min in the dark to determine % DPPH radical-scavenging ability.
L-Ascorbic acid was used as a positive control. Test samples (analogs 1–12 and L-ascorbic acid; 5 mM, 20 μL) dissolved in DMSO were added to each well of a 96-well plate containing the DPPH methanol solution (0.2 mM, 180 μL), and the plate was placed in the dark at 20 °C for 30 min. The absorbance was recorded at 517 nm using a VE microplate reader to calculate DPPH radical-scavenging activity.

[4] = ROS-scavenging activity (SIN-1, DCFH); conditions: 40 μM, SIN-1 10 μM
Procedure: UV-A radiation induces ROS generation substantially, and oxidative stress accelerates melanin formation in organisms. Thus, the ROS-scavenging ability of (Z)-BBTT analogs was examined to determine whether these analogs have an auxiliary ability to scavenge ROS. 3-Morpholinosydnonimine (SIN-1; 10 μM) was used as a ROS generating substance, and Trolox (40 μM) was used as a positive reference standard.
The test samples ((Z)-BBTT analogs 1–12 and Trolox [positive reference standard]) and 3-morpholinosydnonimine (SIN-1) were dissolved in DMSO and PBS, respectively. To prepare 2′,7′-dichlorodihydrofluorescein (DCFH) solution, PBS (50 mM; 4.9 mL, pH 7.4) and DCFH diacetate (2.5 mM; 0.05 mL) were mixed with esterase (15 units/10 mL; 0.05 mL). After storage for 30 min at 20 °C, the mixture was placed in the dark until further use. SIN-1 (10 µL) was added to each well of a 96-well black plate containing PBS (180 µL) and test sample (10 µL), and the plate was placed in the dark for 5 min. The prepared DCFH solution (50 µL) was added to each well of the black plate. The fluorescence of each well was recorded at 535 nm using a microplate reader (Berthold Advances GmbH & Co., Bad Wildbad, Germany) at an excitation wavelength of 485 nm. The test samples and SIN-1 were tested at final concentrations of 40 and 10 μM, respectively.

mushroom tyrosinase = mushroom tyrosinase (Agaricus bisporus, UniProt C7FF04); experiment: Mushroom tyrosinase inhibition assay (dopachrome, 475 nm); assay type: biochemical; conditions: substrate L-tyrosine
Procedure: The plate was placed at 37 °C for 30 min, and well absorbance was measured at 475 nm to determine the generated dopachrome amounts in each well using a VersaMax® Elisa (VE) microplate reader (Molecular Devices, San Jose, CA, USA).

B16F10 cells [5] = experiment: Cellular melanin level measurement in B16F10 cells; assay type: cell-based, murine; conditions: 72 h; for effect on stimulator-induced increase in melanin contents: 2, 5 and 10 μM, concentration-dependent
Procedure: Stimulators comprising 1 μM α-melanocyte-stimulating hormone (α-MSH) and 200 μM 3-isobutyl-1-methylxanthine (IBMX) were administered 1 h after test sample treatment. The effects of analogs 1 and 3 on melanin production were determined by measuring the optical density at 405 nm after 72 h of treatment.
B16F10 cells were seeded at a density of 5000 per well of a 6-well plate, and the plate was cultivated under normal cell culture conditions for 24 h. […] In addition, 200 μM IBMX and 1 μM α-MSH (Alomone Labs™, Jerusalem, Israel) were added to each well and cultivated for 72 h under the normal cell culture conditions. To determine the cellular melanin levels, 1N–NaOH solution (100 μL) was added to each well and then kept at 60 °C for 1 h to lyse the cells. The cell lysates were washed twice with phosphate-buffered saline (PBS) and transferred to a 96-well plate, and the absorbance was recorded at 405 nm using a VE microplate reader to determine the cellular melanin content.

[6] = target: T1, B16F10 cellular tyrosinase (Mus musculus, UniProt P11344); experiment: Cellular tyrosinase activity measurement in B16F10 cells; assay type: cell-based, murine; conditions: α-MSH + IBMX, 72 h; for inhibition of cellular tyrosinase activity compared with kojic acid: 10 μM; for effect on stimulator-enhanced cellular tyrosinase activity: 2, 5 and 10 μM, concentration-dependent
T1 construct: endogenous in cells; host or cells: B16F10 murine melanoma cells stimulated with α-MSH and IBMX
T1 sequence (P11344 19-533): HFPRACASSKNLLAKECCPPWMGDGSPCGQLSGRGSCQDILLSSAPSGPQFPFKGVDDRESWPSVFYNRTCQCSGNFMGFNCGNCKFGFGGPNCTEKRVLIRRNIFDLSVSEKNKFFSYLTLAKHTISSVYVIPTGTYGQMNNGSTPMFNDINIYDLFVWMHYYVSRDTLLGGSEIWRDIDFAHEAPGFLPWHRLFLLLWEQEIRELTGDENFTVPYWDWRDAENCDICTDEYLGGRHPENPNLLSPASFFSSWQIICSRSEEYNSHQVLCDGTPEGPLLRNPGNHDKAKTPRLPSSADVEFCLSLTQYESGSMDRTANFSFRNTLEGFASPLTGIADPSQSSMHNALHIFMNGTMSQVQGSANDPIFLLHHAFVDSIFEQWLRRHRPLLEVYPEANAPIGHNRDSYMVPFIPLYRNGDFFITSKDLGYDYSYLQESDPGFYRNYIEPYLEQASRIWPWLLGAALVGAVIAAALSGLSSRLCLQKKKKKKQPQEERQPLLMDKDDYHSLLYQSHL
Procedure: The cellular tyrosinase inhibitory activity of the test samples was determined by measuring their optical density at 475 nm 72 h after test sample treatment.
B16F10 cells were seeded at a density of 5000 per well of a 6-well plate, and the plate was cultivated under normal cell culture conditions for 24 h. […] Stimulators (200 μM IBMX and 1 μM α-MSH) were added to each well and cultivated for 72 h under normal cell culture conditions. To determine cellular tyrosinase activity, the cells were washed twice with PBS, treated with lysis buffer solution (100 μL) comprising 50 mM phosphate buffer (pH 6.5) (90 μL), 2 mM phenylmethanesulfonyl fluoride (5 μL), and 20% Triton X-100 (5 μL), and incubated at −80 °C for 30 min. After centrifugation (10,000× g, 4 °C, and 10 min), the supernatants (80 μL each) were transferred to each well of a 96-well plate, then 10 mM L-DOPA (20 μL) was added to each well. The absorbance was measured at 475 nm at 1 min intervals for 10 min using a VE microplate reader to determine cellular tyrosinase activity.

B16F10 cell tyrosinase = target: T2, B16F10 cell tyrosinase (Mus musculus, UniProt P11344); experiment: In situ cellular tyrosinase activity in B16F10 cells (L-DOPA staining); assay type: cell-based, murine; conditions: for relative dark area of cells compared with kojic acid at the same concentration: 10 μM, L-DOPA staining; for number of cells strongly stained with melanin: kojic acid 10 μM, analogs 2, 5 and 10 μM, α-MSH + IBMX, 72 h
T2 construct: endogenous in cells; host or cells: B16F10 murine melanoma cells stimulated with α-MSH and IBMX
T2 sequence (P11344 19-533): T1 sequence (P11344 19-533)
Procedure: To identify the in situ cellular tyrosinase inhibitory activity of analogs 1 and 3, B16F10 cells and L-DOPA were used as the experimental target cells and substrate for melanin synthesis, respectively. […] B16F10 cells were photographed after 2 h of treatment with excess L-DOPA, and the darkness of the cells was measured using the CS analyzer program (ATTO, Tokyo, Japan). Analogs 1 and 3 were used at 2, 5, and 10 μM.
After 1 h, the cells were exposed to 1 μM α-MSH and 200 μM IBMX and cultivated under normal cell culture conditions for 72 h. Cultured cells were fixed using a 4% paraformaldehyde solution for 40 min, washed twice with PBS, and permeabilized using 0.1% Triton X-100 for 2 min. L-DOPA solution (2 mM; 500 μL) was added to each well after washing twice with PBS. After the plate was placed for 2 h at 37 °C, the images for cell staining were acquired using a camera attached to a microscope (Motic, Hong Kong).

HaCaT cells = experiment: Cytotoxicity assay on HaCaT cells (EZ-Cytox); assay type: cell-based, human; conditions: 2, 5, 10 and 20 μM, 72 h
Procedure: As keratinocytes are one of the major cells that constitute the epidermis, the effects of analogs 1–3 on HaCaT (immortalized human keratinocytes) cell viability were investigated. Analogs 1–3 were tested at concentrations of 0, 2, 5, 10, and 20 μM, and cell viability was determined 72 h after incubation.
The effect of (Z)-BBTT analogs 1–3 on HaCaT cell viability was examined using EZ-Cytox solution. HaCaT cells were seeded at a density of 1 × 10^3 in each well of a 96-well plate, and the plate was cultivated under normal cell culture conditions for 24 h. Analogs 1–3 were added to each well at concentrations of 0, 2, 5, 10, and 20 μM and then cultivated for 72 h under normal cell culture conditions. An aliquot (10 μL) of the EZ-Cytox solution was added to each well and cultivated for 2 h. Well absorbance was recorded at 450 nm using a VE microplate reader to calculate HaCaT cell viability.

Sequence of mushroom tyrosinase (C7FF04 2-392): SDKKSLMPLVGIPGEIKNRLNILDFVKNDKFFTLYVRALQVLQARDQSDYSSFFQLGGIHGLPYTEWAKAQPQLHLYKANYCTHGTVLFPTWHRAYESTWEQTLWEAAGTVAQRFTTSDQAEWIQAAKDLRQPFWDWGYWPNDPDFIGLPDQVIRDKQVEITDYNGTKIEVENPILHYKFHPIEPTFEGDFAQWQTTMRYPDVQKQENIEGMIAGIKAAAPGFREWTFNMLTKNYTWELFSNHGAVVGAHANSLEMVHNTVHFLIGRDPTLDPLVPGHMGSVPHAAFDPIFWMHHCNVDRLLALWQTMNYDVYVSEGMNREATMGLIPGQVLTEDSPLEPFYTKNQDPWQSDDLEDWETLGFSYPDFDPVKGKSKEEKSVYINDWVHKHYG

inhibition of cellular tyrosinase activity compared with kojic acid [6]	effect on stimulator-enhanced cellular tyrosinase activity [6]	Compound	cytotoxicity to B16F10 cells (B16F10 cells [1])	% ABTS^•+ scavenging [2]	% DPPH radical-scavenging [3]	ROS-scavenging activity (SIN-1-induced ROS levels) [4]	effect on stimulator-induced increase in melanin contents (B16F10 cells [5]; α-MSH + IBMX)	relative dark area of cells compared with kojic acid at the same concentration (B16F10 cell tyrosinase)	number of cells strongly stained with melanin (B16F10 cell tyrosinase)	cytotoxicity to HaCaT cells (HaCaT cells)	other results
		O=C1/C(=C/c2ccc(O)c(O)c2)SC(=S)N1Cc1ccccc1 [Compound 2, (Z)-3-Benzyl-5-(3,4-dihydroxybenzylidene)-2-thioxothiazolidin-4-one]	cytotoxic at all tested concentrations	99%	95%	greater ROS-scavenging potency than Trolox					
more strongly than kojic acid	significantly decreased	O=C1/C(=C/c2ccc(O)cc2)SC(=S)N1Cc1ccccc1 [Compound 1, (Z)-3-Benzyl-5-(4-hydroxybenzylidene)-2-thioxothiazolidin-4-one]	not cytotoxic; also recorded: no perceptible cytotoxicity				significantly decreased	significantly less than that of kojic acid	reduced the number of strongly stained cells in a concentration-dependent manner	no perceptible cytotoxicity	inhibitory potency relative to kojic acid (IC50 ratio) (mushroom tyrosinase): four-fold lower; stimulator-induced increased melanin content reduced by (fold) (B16F10 cells [5]; 10 μM, α-MSH 1 μM + IBMX 200 μM, stimulators alone 5.0-fold increase): 1.9 fold
		Cc1c(C)c2c(c(C)c1O)CCC(C)(C(=O)O)O2 (centres unmarked) [Trolox, reference compound]		99%		significantly reduced					
		COc1ccc(/C=C2\SC(=S)N(Cc3ccccc3)C2=O)cc1O [Compound 5, (Z)-3-Benzyl-5-(3-hydroxy-4-methoxybenzylidene)-2-thioxothiazolidin-4-one]		71%	17%						
more strongly than kojic acid	significantly decreased	O=C1/C(=C/c2ccc(O)cc2O)SC(=S)N1Cc1ccccc1 [Compound 3, (Z)-3-Benzyl-5-(2,4-dihydroxybenzylidene)-2-thioxothiazolidin-4-one]	not cytotoxic; also recorded: no perceptible cytotoxicity	98%		equipotent to that of Trolox	significantly decreased	significantly less than that of kojic acid	reduced the number of strongly stained cells in a concentration-dependent manner	no perceptible cytotoxicity	inhibition of melanin production compared with kojic acid at the same concentration (B16F10 cells [5]; 10 μM, α-MSH + IBMX): significantly more potently than kojic acid; melanin content compared with 10 μM kojic acid (B16F10 cells [5]; analog at 2 μM, α-MSH + IBMX): more weakly than 10 μM kojic acid
		O=C1O[C@H]([C@@H](O)CO)C(O)=C1O [Ascorbic acid, L-Ascorbic acid, reference compound]			97%						
